Among the data in PubChem BioAssay (NCI) are TGI values, retold here.

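These data come from cells grown in 96-well plates and exposed to compound for 48 hours at five concentrations. TGI: concentration producing complete growth inhibition.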

Common to all, as to assay: NCI-60 cell line screen, 48 h
In test [1] the test system is HCT-116 colon.
The subject of test [2] is SF-295 CNS.
For test [3], the system named is HT29 colon.
The test system of test [4] is U251 CNS.
Test [5] has as its system MALME-3M melanoma.
The test system of test [6] is T-47D breast.
Test [7] concerns ACHN renal.
Test [8] deals with SK-MEL-28 melanoma.
Test [9] relates to BT-549 breast.
Test [10] relates to A498 renal.

With `CCN(CC)c1c(N(CC)CC)c(=O)c1=O`, the TGI is 20.8 µM in test [1]; > 100 µM in [2]; 5.96 µM in [3]; 55.6 µM in test [4]; 13.2 µM in test [5]; 10.4 µM in [6]. Further, the TGI is 21.1 µM in test [7], 41.9 µM in [8], 35.8 µM in [9] and 58.1 µM in [10].
`CCSc1n/c(=C\c2ccco2)c2nnnn12`: the TGI in test [1], in [2], in test [3], in test [4], in test [5] and in [6] was > 100 µM throughout. The TGI in test [7], in [8], in test [9] and in test [10] was > 100 µM in each case.
Regarding `O=[N+]([O-])c1ccc(/C=N/n2c(CO)nc3ccccc32)o1`, the TGI in test [1] worked out at 7.86 µM; in test [2], 25.2 µM; in [3], 10.3 µM; in test [4], 37.2 µM; in test [5], 5.44 µM; in [6], 47.9 µM. In addition, the TGI in [7] was found to be 17.3 µM; in [8], 12.6 µM; in test [9] it was 27.6 µM; in test [10], 32.4 µM.
As to `NC(Cc1cccc([N+](=O)[O-])c1)C(=O)O` (stereo not given), the TGI in test [1], in test [2], in [3], in test [4], in test [5] and in test [6] was > 100 µM in each case. In addition, the TGI in test [7], in [8], in [9] and in test [10] was > 100 µM throughout.
As for `COc1ccc(CC2c3cc(Oc4cc(CC5c6cc(OC)c(OC)cc6CCN5C)ccc4O)c(OC)cc3CCN2C)cc1` (stereo not given), the TGI worked out at 4.6 µM in test [1]; 15.4 µM in [2]; 8.15 µM in test [3]; 11.9 µM in test [4]; 17.6 µM in test [5]; 12.8 µM in test [6]. Moreover, the TGI in test [7] came out at 13.5 µM; in [8] it was 15.1 µM; in test [9], 13.4 µM; in test [10], 14.8 µM.
With `COc1ccc(C(C)NNC(=O)c2ccncc2)c(OC)c1` (stereo not given), the TGI in test [1], in test [2], in test [3], in [4], in [5] and in test [6] was > 100 µM each time. Further, the TGI in test [7], in test [8], in [9] and in test [10] was > 100 µM throughout.
With `O=C1N=c2ccccc2=C1c1c(O)[nH]c2ccccc12`, the TGI is 88.3 µM in test [1]; > 100 µM in test [2]; 17.8 µM in [3]; 24.1 µM in test [4]; 35.5 µM in [5]; 3.77 µM in [6]. For the same compound, the TGI is 37.1 µM in test [7], > 100 µM in [8], 96.2 µM in [9] and 64.3 µM in test [10].
On to `CC1(CCCO)CCCCCC(C)(CCCO)C1=O` (stereo not given), for which the TGI in test [1], in test [2], in test [3], in test [4], in test [5] and in test [6] was > 100 µM each time. Further, the TGI in test [7], in test [8], in test [9] and in test [10] was > 100 µM in each case.
For the compound `CCC(=O)NC(Nc1cccc(F)c1C)(C(F)(F)F)C(F)(F)F`, the TGI in test [1], in test [2], in test [3], in test [4], in [5] and in test [6] was > 100 µM in each case. Further, the TGI in test [7], in test [8], in test [9] and in test [10] was > 100 µM throughout.
On to `CCc1nc(N)nc(N)c1-c1ccc(Cl)c(Cl)c1`, for which the TGI in test [1], in test [2], in test [3], in test [4], in test [5] and in [6] was > 100 µM throughout. The TGI in test [7], in [8], in test [9] and in test [10] was > 100 µM throughout.
Consider `C[C@@H]1C[C@H]2[C@@H]3CCC4=CC(=O)C=C[C@]4(C)[C@@]3(Cl)[C@@H](Cl)C[C@]2(C)[C@@]1(O)C(=O)COP(=O)(O)O`, for which the TGI in test [1], in test [2], in test [3], in test [4], in test [5] and in test [6] was > 100 µM each time. Besides, the TGI in test [7], in test [8], in test [9] and in test [10] was > 100 µM in each case.
Take `CN1C(=O)N/C(=C\c2ccc(S(=O)(=O)NN)cc2)C1=O`: the TGI in test [1], in [2], in [3], in test [4], in test [5] and in [6] was > 100 µM in each case. The TGI in test [7], in [8], in test [9] and in test [10] was > 100 µM each time.
